Assay [1] in a line: analgesic effect (statement in words). It counts as in vivo. To be noted: on its own or in combination with tramadol.
Assay [2] concerns thermal radiation pain (tail flick). As to the kind of experiment: thermal radiation (tail flick) test on rats (analgesia). The class given is in vivo, female Sprague Dawley rats. To be noted: Rattus norvegicus, 20 min, read-out: ED50 in the tail flick test. An excerpt:
Testing for analgesia using the tail flick test on rats
The analgesic effectiveness of the compounds to be used according to the invention was investigated in the thermal radiation (tail flick) test on rats using the method of D'Amour and Smith (J. Pharm. Exp. Ther. 72, 74-79 (1941). Female Sprague Dawley rats with a weight of 120-160 g were used for this purpose. The animals were placed individually in test cages and the bases of their tails were exposed to the focused thermal radiation from an electric lamp (Rhema Analgesiemeter for rats). The lamp intensity was adjusted so that the time from switching on the lamp until the sudden twitching away of the tail (latency of pain) was 3-6 seconds for untreated animals. Before the administration of the compounds to be used according to the invention, the animals were tested twice within five minutes and the average value of these measurements was calculated as the pre-test average. The pain measurement was made 20, 40 and 60 minutes after intravenous administration. […]. In order to determine the dosage-dependency, the compounds were administered in doses increasing logarithmically by a factor of 3-5, which included the threshold and the maximum effective dose each time. The ED50 values were determined from the number of analgesic animals by the method of Litchfield and Wilcoxon (J. Pharm. Exp. Ther. 96, 99-113, (1949)). The ED50 was calculated at the effective maximum 20 minutes after intravenous administration of the substance.
For orientation: Hot-plate and tail-flick tests time the reaction to a heat stimulus.

Assay [3] has as its system phenylquinone-induced writhing. Nature of the assay: phenylquinone-induced writhing test on mice (analgesia). The class given is in vivo, male NMRI mice. To be noted: Mus musculus, read-out: ED50 in the writhing test. Here is the method:
Testing for analgesia using the writhing test on mice
Testing for analgesic effectiveness was performed using the phenylquinone-induced writhing test on mice (modified according to I. C. Hendershot, J. Forsaith, J. Pharmacol. Exp. Ther. 125, 237-240 (1959)). […]. For each dose of substance, groups of 10 animals received, 10 minutes after the intravenous administration of the compounds to be used according to the invention, 0.3 ml per mouse of an 0.02% aqueous solution of phenylquinone (phenylbenzoquinone: manufactured by Sigma, Deisenhofen; solution prepared with the addition of 5 % ethanol and kept on a water bath at 45° C.) administered intraperitoneally. The animals were placed individually in observation cages, and the number of pain-induced stretching movements (so-called writhing reactions=straightening of the body with stretching of the rear extremities) 5-20 minutes after the administration of phenylquinone was counted by means of a push-button counter. The ED50 values were calculated with a 95% confidence limit by means of regression analysis (evaluation program supplied by Martens EDV Service, Eckental) from the dose-dependent decrease in the writhing reactions, by comparison with control groups which were tested in parallel and which were treated with phenylquinone only.
On the technique in general: An intraperitoneal irritant provokes the stretching counted in writhing tests.

[4] abbreviates: intravenous, 20 minutes after administration, >150 % of pre-test average latency, rats.
Where [5] appears, read: intravenous, phenylquinone i.p. 10 minutes after compound, writhing counted 5-20 minutes after phenylquinone, mice.

Where a name gives a salt, the structure may show the parent alone. Read-outs that look alike come from different tables or passages of the source.

Turning to `CN(C)C[C@H]1CCCC[C@]1(O)c1cccc(O)c1` (relative stereo) [O-demethyltramadol], the analgesic effect entry in assay [1] was “high analgesic effect”.
A word on the ED50: it is the midpoint of the dose-response relation. Take `COc1cccc([C@@]2(O)CCCC[C@@H]2CN(C)C)c1.Cl` (racemic) [racemic tramadol hydrochloride, (1RS, 2RS)-2-dimethylaminomethyl-1-(3-methoxy-phenyl)-cyclohexanol hydrochloride, reference compound]: the results for the 50% effective dose (ED50) in assay [2] (iv) and in assay [3] (iv) were 6.47 mg/kg and 3.59 mg/kg, respectively.
Take `CN(C)C[C@@H]1CCCC[C@@]1(O)c1cccc(O)c1` [(-)-enantiomer of O-demethyltramadol hydrochloride, (-)-(1S, 25)-3-(2-dimethylaminomethyl-1-hydroxy-cyclohexyl)-phenol hydrochloride]: the results for the ED50 in assay [2] (setting [4]) and in assay [3] (setting [5]) were above 10 mg/kg and 6.6 mg/kg, respectively.
With `CN(C)C[C@H]1CCCC[C@]1(O)c1cccc(O)c1` [(+)-enantiomer of O-demethyltramadol hydrochloride, (+)-(1R, 2R)-3-(2-dimethyl-aminomethyl-1-hydroxy-cyclohexyl)-phenol hydrochloride], the 50% effective dose (ED50) came out at 1.01 mg/kg in assay [2] (setting [4]) and 0.489 mg/kg in assay [3] (setting [5]).

The record behind these values is patent US5728885A, “Method of preparing the enantiomers of O-dimethyltramadol” (priority 1996, dated 1998).
